Measured values taken from ChEMBL document CHEMBL4229379, “Synthesis and structure-activity relationship of novel bisindole amidines active against MDR Gram-positive and Gram-negative bacteria” (Eur J Med Chem, 2018).
Converted amounts (≈) assume the structure as drawn.

Legend:
[1] = test system: Staphylococcus aureus; test: Antibacterial activity against methicillin-sensitive Staphylococcus aureus 12-28 after 18 hrs by CLSI broth microdilution method; format: functional; settings: 12-28, 18 h
[2] = test system: Enterococcus faecium; test: Antibacterial activity against vancomycin-resistant Enterococcus faecium 12-1 after 18 hrs by CLSI broth microdilution method; format: functional; settings: 12-1, 18 h
[3] = test system: Klebsiella pneumoniae; test: Antibacterial activity against extended-spectrum beta-lactamase deficient Klebsiella pneumoniae 12-4 after 18 hrs by CLSI broth microdilution method; format: functional; settings: 12-4, 18 h
[4] = test system: Proteus mirabilis; test: Antibacterial activity against Proteus mirabilis 12-6 after 18 hrs by CLSI broth microdilution method; format: functional; settings: 12-6, 18 h
[5] = test system: Stenotrophomonas maltophilia; test: Antibacterial activity against Stenotrophomonas maltophilia ATCC 13636 after 18 hrs by CLSI broth microdilution method; format: functional; settings: ATCC 13636, 18 h
[6] = test system: Klebsiella pneumoniae; test: Antibacterial activity against extended-spectrum beta-lactamase deficient Klebsiella pneumoniae 7 after 18 hrs by CLSI broth microdilution method; format: functional; settings: Klebsiella pneumoniae, 7, 18 h
[7] = Cytotoxicity against HEK293T cells assessed as reduction in cell viability after 48 hrs by MTS assay; format: cell-based, HEK-293T; settings: human
[8] = test system: Staphylococcus epidermidis; test: Antibacterial activity against methicillin-resistant Staphylococcus epidermidis 12-8 after 18 hrs by CLSI broth microdilution method; format: functional; settings: 12-8, 18 h
[9] = test system: Escherichia coli; test: Antibacterial activity against extended-spectrum beta-lactamase deficient Escherichia coli ATCC 25922 after 18 hrs by CLSI broth microdilution method; format: functional; settings: ATCC 25922, 18 h
[10] = test system: Klebsiella pneumoniae; test: Antibacterial activity against new delhi metallo-beta-lactamase-1 harboring Klebsiella pneumoniae ATCC BAA-2146 after 18 hrs by CLSI broth microdilution method; format: functional; settings: ATCC BAA-2146, 18 h
[11] = test system: Klebsiella pneumoniae; test: Antibacterial activity against extended-spectrum beta-lactamase harboring Klebsiella pneumoniae ATCC 700603 after 18 hrs by CLSI broth microdilution method; format: functional; settings: Klebsiella pneumoniae, 700603, 18 h
[12] = test system: Enterobacter cloacae; test: Antibacterial activity against Enterobacter cloacae ATCC 43560 after 18 hrs by CLSI broth microdilution method; format: functional; settings: ATCC 43560, 18 h
[13] = test system: Providencia rettgeri; test: Antibacterial activity against Providencia rettgeri ATCC 31052 after 18 hrs by CLSI broth microdilution method; format: functional; settings: ATCC 31052, 18 h
[14] = test system: Enterococcus faecalis; test: Antibacterial activity against vancomycin-resistant Enterococcus faecalis ATCC 51299 after 18 hrs by CLSI broth microdilution method; format: functional; settings: ATCC 51299, 18 h
[15] = test system: Staphylococcus aureus; test: Antibacterial activity against methicillin-sensitive Staphylococcus aureus 15 after 18 hrs by CLSI broth microdilution method; format: functional; settings: Staphylococcus aureus, 15, 18 h
[16] = test system: Klebsiella pneumoniae; test: Antibacterial activity against extended-spectrum beta-lactamase harboring Klebsiella pneumoniae 12-8 after 18 hrs by CLSI broth microdilution method; format: functional; settings: 12-8, 18 h
[17] = test system: Enterococcus faecalis; test: Antibacterial activity against vancomycin-resistant Enterococcus faecalis 09-9 after 18 hrs by CLSI broth microdilution method; format: functional; settings: 09-9, 18 h
[18] = test system: Staphylococcus epidermidis; test: Antibacterial activity against methicillin-sensitive Staphylococcus epidermidis ATCC 12228 after 18 hrs by CLSI broth microdilution method; format: functional; settings: ATCC 12228, 18 h
[19] = test system: Escherichia coli; test: Antibacterial activity against extended-spectrum beta-lactamase deficient Escherichia coli 1515 after 18 hrs by CLSI broth microdilution method; format: functional; settings: Escherichia coli, 1515, 18 h
[20] = test system: Serratia marcescens; test: Antibacterial activity against Serratia marcescens ATCC 21074 after 18 hrs by CLSI broth microdilution method; format: functional; settings: ATCC 21074, 18 h
[21] = test system: Staphylococcus aureus; test: Antibacterial activity against methicillin-resistant Staphylococcus aureus ATCC 33591 after 18 hrs by CLSI broth microdilution method; format: functional; settings: ATCC 33591, 18 h
[22] = test system: Enterococcus faecium; test: Antibacterial activity against vancomycin-resistant Enterococcus faecium ATCC 700221 after 18 hrs by CLSI broth microdilution method; format: functional; settings: ATCC 700221, 18 h
[23] = test system: Pseudomonas aeruginosa; test: Antibacterial activity against Pseudomonas aeruginosa ATCC 27853 after 18 hrs by CLSI broth microdilution method; format: functional; settings: ATCC 27853, 18 h
[24] = test system: Enterococcus faecalis; test: Antibacterial activity against vancomycin-sensitive Enterococcus faecalis ATCC 29212 after 18 hrs by CLSI broth microdilution method; format: functional; settings: ATCC 29212, 18 h
[25] = test system: Pseudomonas aeruginosa; test: Antibacterial activity against Pseudomonas aeruginosa 12-16 after 18 hrs by CLSI broth microdilution method; format: functional; settings: 12-16, 18 h
[26] = test system: Escherichia coli; test: Antibacterial activity against extended-spectrum beta-lactamase deficient Escherichia coli 12-14 after 18 hrs by CLSI broth microdilution method; format: functional; settings: 12-14, 18 h
[27] = test system: Staphylococcus aureus; test: Antibacterial activity against methicillin-resistant Staphylococcus aureus 12-33 after 18 hrs by CLSI broth microdilution method; format: functional; settings: 12-33, 18 h
[28] = test system: Acinetobacter calcoaceticus; test: Antibacterial activity against Acinetobacter calcoaceticus ATCC 19606 after 18 hrs by CLSI broth microdilution method; format: functional; settings: ATCC 19606, 18 h
[29] = test system: Enterococcus faecalis; test: Antibacterial activity against vancomycin-sensitive Enterococcus faecalis 12-5 after 18 hrs by CLSI broth microdilution method; format: functional; settings: 12-5, 18 h
[30] = test system: Citrobacter freundii; test: Antibacterial activity against Citrobacter freundii ATCC 43864 after 18 hrs by CLSI broth microdilution method; format: functional; settings: ATCC 43864, 18 h
[31] = test system: Enterococcus faecium; test: Antibacterial activity against vancomycin-sensitive Enterococcus faecium 12-3 after 18 hrs by CLSI broth microdilution method; format: functional; settings: 12-3, 18 h
[32] = test system: Escherichia coli; test: Antibacterial activity against extended-spectrum beta-lactamase harboring Escherichia coli 12-15 after 18 hrs by CLSI broth microdilution method; format: functional; settings: 12-15, 18 h
[33] = test system: Proteus vulgaris; test: Antibacterial activity against Proteus vulgaris ATCC 29905 after 18 hrs by CLSI broth microdilution method; format: functional; settings: ATCC 29905, 18 h
[34] = test system: Klebsiella aerogenes; test: Antibacterial activity against Enterobacter aerogenes ATCC 13048 after 18 hrs by CLSI broth microdilution method; format: functional; settings: ATCC 13048, 18 h
[35] = test system: Staphylococcus epidermidis; test: Antibacterial activity against methicillin-sensitive Staphylococcus epidermidis 12-6 after 18 hrs by CLSI broth microdilution method; format: functional; settings: 12-6, 18 h
[36] = test system: Staphylococcus aureus; test: Antibacterial activity against methicillin-sensitive Staphylococcus aureus ATCC 29213 after 18 hrs by CLSI broth microdilution method; format: functional; settings: ATCC 29213, 18 h
[37] = test system: Pseudomonas aeruginosa; test: Antibacterial activity against Pseudomonas aeruginosa PAO1 after 18 hrs by CLSI broth microdilution method; format: functional; settings: PAO1, 18 h

Structure (SMILES) | MIC [1] | MIC [2] | MIC [3] | MIC [4] | MIC [5] | MIC [6] | CC50 at 48 h [7] | MIC [8] | MIC [9] | MIC [10] | MIC [11] | MIC [12] | MIC [13] | MIC [14] | MIC [15] | MIC [16] | MIC [17] | MIC [18] | MIC [19] | MIC [20] | further results
CCN(C)C(=N)c1ccc2cc(-c3ccc(-c4cc5ccc(C(=N)N(C)CC)cc5[nH]4)cc3)[nH]c2c1 | 0.5 µg/mL (≈ 1.05 µM) | 0.5 µg/mL (≈ 1.05 µM) | 4 µg/mL (≈ 8.39 µM) | 8 µg/mL (≈ 16.8 µM) | 8 µg/mL (≈ 16.8 µM) | 4 µg/mL (≈ 8.39 µM) | 17 µg/mL (≈ 35.8 µM) | 0.5 µg/mL (≈ 1.05 µM) | 1 µg/mL (≈ 2.1 µM) | 4 µg/mL (≈ 8.39 µM) | 8 µg/mL (≈ 16.8 µM) | 2 µg/mL (≈ 4.2 µM) | 4 µg/mL (≈ 8.39 µM) | 2 µg/mL (≈ 4.2 µM) | 0.5 µg/mL (≈ 1.05 µM) | 4 µg/mL (≈ 8.39 µM) | 2 µg/mL (≈ 4.2 µM) | 0.25 µg/mL (≈ 0.525 µM) | 2 µg/mL (≈ 4.2 µM) | 16 µg/mL (≈ 33.6 µM) | MIC [21]: 0.5 µg/mL (≈ 1.05 µM); MIC [22]: 1 µg/mL (≈ 2.1 µM); MIC [23]: 8 µg/mL (≈ 16.8 µM); MIC [24]: 1 µg/mL (≈ 2.1 µM); MIC [25]: 128 µg/mL (≈ 269 µM); MIC [26]: 2 µg/mL (≈ 4.2 µM); MIC [27]: 1 µg/mL (≈ 2.1 µM); MIC [28]: 4 µg/mL (≈ 8.39 µM); MIC [29]: 2 µg/mL (≈ 4.2 µM); MIC [30]: 2 µg/mL (≈ 4.2 µM); MIC [31]: 1 µg/mL (≈ 2.1 µM); MIC [32]: 2 µg/mL (≈ 4.2 µM); MIC [33]: 4 µg/mL (≈ 8.39 µM); MIC [34]: 2 µg/mL (≈ 4.2 µM); MIC [35]: 0.25 µg/mL (≈ 0.525 µM); MIC [36]: 0.5 µg/mL (≈ 1.05 µM); MIC [37]: 128 µg/mL (≈ 269 µM)
CNC(=N)c1ccc2cc(-c3cncc(-c4cc5ccc(C(=N)NC)cc5[nH]4)c3)[nH]c2c1 | > 64 µg/mL | > 64 µg/mL | > 64 µg/mL | > 64 µg/mL | > 64 µg/mL | > 64 µg/mL | > 100 µg/mL | 8 µg/mL (≈ 19 µM) | > 64 µg/mL | > 64 µg/mL | > 64 µg/mL | > 64 µg/mL | > 64 µg/mL | > 64 µg/mL | > 64 µg/mL | > 64 µg/mL | > 64 µg/mL | 4 µg/mL (≈ 9.49 µM) | > 64 µg/mL | > 64 µg/mL | MIC [21]: > 64 µg/mL; MIC [22]: > 64 µg/mL; MIC [23]: > 64 µg/mL; MIC [24]: > 64 µg/mL; MIC [25]: > 64 µg/mL; MIC [26]: > 64 µg/mL; MIC [27]: > 64 µg/mL; MIC [28]: > 64 µg/mL; MIC [29]: > 64 µg/mL; MIC [30]: > 64 µg/mL; MIC [31]: > 64 µg/mL; MIC [32]: > 64 µg/mL; MIC [33]: > 64 µg/mL; MIC [34]: > 64 µg/mL; MIC [35]: 8 µg/mL (≈ 19 µM); MIC [36]: > 64 µg/mL; MIC [37]: > 64 µg/mL
